Results published in PubChem BioAssay (NCI).
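A five-concentration, 48-hour dose response in 96-well plates underlies each endpoint, interpolated linearly between surrounding concentrations. Here, GI50 denotes the concentration required for 50% inhibition of growth. TGI: total growth inhibition.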

Columns and labels:
Experiment in all cases: NCI tumour cell line growth inhibition, 48 h
MDA-MB-435 = system: MDA-MB-435
RPMI-8226 leukemia = system: RPMI-8226 leukemia
NCI-H522 lung = system: NCI-H522 lung
HOP-62 NSCLC = system: HOP-62 NSCLC
UACC-62 melanoma = system: UACC-62 melanoma
SN12C renal = system: SN12C renal
HS 578T breast = system: HS 578T breast
HT29 colon = system: HT29 colon
SNB-19 CNS = system: SNB-19 CNS
HCT-116 colon = system: HCT-116 colon
UO-31 renal = system: UO-31 renal
KM12 colon = system: KM12 colon
MDA-MB-231 breast = system: MDA-MB-231 breast
NCI-H226 lung = system: NCI-H226 lung
SK-MEL-2 melanoma = system: SK-MEL-2 melanoma
A498 renal = system: A498 renal
SF-295 CNS = system: SF-295 CNS
HCC-2998 colon = system: HCC-2998 colon
786-0 renal = system: 786-0 renal
HCT-15 colon = system: HCT-15 colon
MOLT-4 leukemia = system: MOLT-4 leukemia
CAKI-1 renal = system: CAKI-1 renal
CCRF-CEM leukemia = system: CCRF-CEM leukemia
SW-620 colon = system: SW-620 colon
T-47D breast = system: T-47D breast
SNB-75 CNS = system: SNB-75 CNS
OVCAR-3 ovarian = system: OVCAR-3 ovarian
SR leukemia = system: SR leukemia
ACHN renal = system: ACHN renal
HL-60(TB) leukemia = system: HL-60(TB) leukemia
NCI-H23 lung = system: NCI-H23 lung
MCF7 breast = system: MCF7 breast
SK-MEL-5 melanoma = system: SK-MEL-5 melanoma
MALME-3M melanoma = system: MALME-3M melanoma
COLO 205 colon = system: COLO 205 colon
SK-MEL-28 melanoma = system: SK-MEL-28 melanoma
SK-OV-3 ovarian = system: SK-OV-3 ovarian
EKVX NSCLC = system: EKVX NSCLC
NCI/ADR-RES ovarian = system: NCI/ADR-RES ovarian
OVCAR-5 ovarian = system: OVCAR-5 ovarian
IGROV1 ovarian = system: IGROV1 ovarian
A549 NSCLC = system: A549 NSCLC
OVCAR-4 ovarian = system: OVCAR-4 ovarian
SF-539 CNS = system: SF-539 CNS
OVCAR-8 ovarian = system: OVCAR-8 ovarian
BT-549 breast = system: BT-549 breast
DU-145 prostate = system: DU-145 prostate
HOP-92 NSCLC = system: HOP-92 NSCLC
SF-268 CNS = system: SF-268 CNS
TK-10 renal = system: TK-10 renal
RXF 393 renal = system: RXF 393 renal
M14 melanoma = system: M14 melanoma
NCI-H460 lung = system: NCI-H460 lung
U251 CNS = system: U251 CNS
UACC-257 melanoma = system: UACC-257 melanoma
PC-3 prostate = system: PC-3 prostate
LOX IMVI melanoma = system: LOX IMVI melanoma

Work on `Nc1ccc(C2=NNC(=O)Cc3cc4c(cc32)OCCO4)cc1Cl` yielded a GI50 (MDA-MB-435) of 886 nM, a TGI (MDA-MB-435) of 4.18 µM and a GI50 (RPMI-8226 leukemia) of 7.56 µM. The TGI (RPMI-8226 leukemia) was greater than 50 µM, the GI50 (NCI-H522 lung) was 2020 nM and the TGI (NCI-H522 lung) was 23.5 µM. It also gave a GI50 (HOP-62 NSCLC) of 5.12 µM, a TGI (HOP-62 NSCLC) greater than 50 µM and a GI50 (UACC-62 melanoma) of 4.42 µM. It also gave a TGI (UACC-62 melanoma) greater than 50 µM, a GI50 (SN12C renal) of 14.9 µM and a TGI (SN12C renal) greater than 50 µM. It also gave a GI50 (HS 578T breast) of 4.33 µM, a TGI (HS 578T breast) of 25 µM and a GI50 (HT29 colon) of 2110 nM. It also gave a TGI (HT29 colon) greater than 50 µM, a GI50 (SNB-19 CNS) of 8.19 µM and a TGI (SNB-19 CNS) greater than 50 µM. It also gave a GI50 (HCT-116 colon) of 2640 nM, a TGI (HCT-116 colon) greater than 50 µM and a GI50 (UO-31 renal) of 16.8 µM. For the same compound, the TGI (UO-31 renal) was greater than 50 µM, the GI50 (KM12 colon) was 1740 nM and the TGI (KM12 colon) was greater than 50 µM. It also gave a GI50 (MDA-MB-231 breast) of 27.1 µM, a TGI (MDA-MB-231 breast) greater than 50 µM and a GI50 (NCI-H226 lung) of 8.12 µM. It also gave a TGI (NCI-H226 lung) greater than 50 µM, a GI50 (SK-MEL-2 melanoma) of 2810 nM and a TGI (SK-MEL-2 melanoma) of 44.6 µM. For the same compound, the GI50 (A498 renal) was 944 nM, the TGI (A498 renal) was 19.9 µM and the GI50 (SF-295 CNS) was 2490 nM. It also gave a TGI (SF-295 CNS) greater than 50 µM, a GI50 (HCC-2998 colon) of 3.73 µM and a TGI (HCC-2998 colon) greater than 50 µM. The GI50 (786-0 renal) was 6.51 µM, the TGI (786-0 renal) was greater than 50 µM and the GI50 (HCT-15 colon) was 2490 nM. For the same compound, the TGI (HCT-15 colon) was greater than 50 µM, the GI50 (MOLT-4 leukemia) was 3.05 µM and the TGI (MOLT-4 leukemia) was greater than 50 µM. For the same compound, the GI50 (CAKI-1 renal) was 1990 nM, the TGI (CAKI-1 renal) was greater than 50 µM and the GI50 (CCRF-CEM leukemia) was 3.47 µM. It also gave a TGI (CCRF-CEM leukemia) greater than 50 µM, a GI50 (SW-620 colon) of 2010 nM and a TGI (SW-620 colon) greater than 50 µM. The GI50 (T-47D breast) was 5.42 µM, the TGI (T-47D breast) was greater than 50 µM and the GI50 (SNB-75 CNS) was 2000 nM. It also gave a TGI (SNB-75 CNS) of 27.9 µM, a GI50 (OVCAR-3 ovarian) of 1510 nM and a TGI (OVCAR-3 ovarian) of 6.47 µM. It also gave a GI50 (SR leukemia) of 1370 nM, a TGI (SR leukemia) greater than 50 µM and a GI50 (ACHN renal) of 18.8 µM. For the same compound, the TGI (ACHN renal) was greater than 50 µM, the GI50 (HL-60(TB) leukemia) was 1720 nM and the TGI (HL-60(TB) leukemia) was 12.3 µM. For the same compound, the GI50 (NCI-H23 lung) was 5.28 µM, the TGI (NCI-H23 lung) was greater than 50 µM and the GI50 (MCF7 breast) was 1990 nM. It also gave a TGI (MCF7 breast) greater than 50 µM, a GI50 (SK-MEL-5 melanoma) of 2280 nM and a TGI (SK-MEL-5 melanoma) greater than 50 µM. The GI50 (MALME-3M melanoma) was 4.13 µM, the TGI (MALME-3M melanoma) was greater than 50 µM and the GI50 (COLO 205 colon) was 2630 nM. For the same compound, the TGI (COLO 205 colon) was 17.5 µM, the GI50 (SK-MEL-28 melanoma) was 9.1 µM and the TGI (SK-MEL-28 melanoma) was greater than 50 µM. The GI50 (SK-OV-3 ovarian) was 8.1 µM, the TGI (SK-OV-3 ovarian) was greater than 50 µM and the GI50 (EKVX NSCLC) was 12.7 µM. The TGI (EKVX NSCLC) was greater than 50 µM, the GI50 (NCI/ADR-RES ovarian) was 1300 nM and the TGI (NCI/ADR-RES ovarian) was 7.32 µM. It also gave a GI50 (OVCAR-5 ovarian) of 7.96 µM, a TGI (OVCAR-5 ovarian) greater than 50 µM and a GI50 (IGROV1 ovarian) of 4.54 µM. The TGI (IGROV1 ovarian) was greater than 50 µM, the GI50 (A549 NSCLC) was 2950 nM and the TGI (A549 NSCLC) was greater than 50 µM. The GI50 (OVCAR-4 ovarian) was 35.3 µM, the TGI (OVCAR-4 ovarian) was greater than 50 µM and the GI50 (SF-539 CNS) was 4.15 µM. The TGI (SF-539 CNS) was 16.8 µM, the GI50 (OVCAR-8 ovarian) was 8.03 µM and the TGI (OVCAR-8 ovarian) was greater than 50 µM. For the same compound, the GI50 (BT-549 breast) was 5.99 µM, the TGI (BT-549 breast) was greater than 50 µM and the GI50 (DU-145 prostate) was 11.4 µM. For the same compound, the TGI (DU-145 prostate) was greater than 50 µM, the GI50 (HOP-92 NSCLC) was 4.89 µM and the TGI (HOP-92 NSCLC) was 49 µM. For the same compound, the GI50 (SF-268 CNS) was 8.77 µM, the TGI (SF-268 CNS) was greater than 50 µM and the GI50 (TK-10 renal) was 18.9 µM. The TGI (TK-10 renal) was greater than 50 µM, the GI50 (RXF 393 renal) was 5.27 µM and the TGI (RXF 393 renal) was 19.3 µM. It also gave a GI50 (M14 melanoma) of 2300 nM, a TGI (M14 melanoma) greater than 50 µM and a GI50 (NCI-H460 lung) of 1940 nM. The TGI (NCI-H460 lung) was greater than 50 µM, the GI50 (U251 CNS) was 3.68 µM and the TGI (U251 CNS) was greater than 50 µM. The GI50 (UACC-257 melanoma) was 13.3 µM, the TGI (UACC-257 melanoma) was greater than 50 µM and the GI50 (PC-3 prostate) was 7.94 µM. For the same compound, the TGI (PC-3 prostate) was greater than 50 µM, the GI50 (LOX IMVI melanoma) was 2950 nM and the TGI (LOX IMVI melanoma) was greater than 50 µM.
